These are literature values, as cited in patent US7026301B2, “Method of orally treating inflammatory skin conditions with prodrugs of 5-fluorouracil” (New York University, priority 2002, dated 2006).

The conditions of data set [1]: treated patients; for patients in whom hand-foot syndrome occurred: any grade.
Data set [2] concerns the target T1, dihydropyrimidine dehydrogenase (DPD) (Homo sapiens, UniProt Q12882).
T1 construct: host or cells: endogenous enzyme of patients (in vivo)
T1 sequence (Q12882 4-1025): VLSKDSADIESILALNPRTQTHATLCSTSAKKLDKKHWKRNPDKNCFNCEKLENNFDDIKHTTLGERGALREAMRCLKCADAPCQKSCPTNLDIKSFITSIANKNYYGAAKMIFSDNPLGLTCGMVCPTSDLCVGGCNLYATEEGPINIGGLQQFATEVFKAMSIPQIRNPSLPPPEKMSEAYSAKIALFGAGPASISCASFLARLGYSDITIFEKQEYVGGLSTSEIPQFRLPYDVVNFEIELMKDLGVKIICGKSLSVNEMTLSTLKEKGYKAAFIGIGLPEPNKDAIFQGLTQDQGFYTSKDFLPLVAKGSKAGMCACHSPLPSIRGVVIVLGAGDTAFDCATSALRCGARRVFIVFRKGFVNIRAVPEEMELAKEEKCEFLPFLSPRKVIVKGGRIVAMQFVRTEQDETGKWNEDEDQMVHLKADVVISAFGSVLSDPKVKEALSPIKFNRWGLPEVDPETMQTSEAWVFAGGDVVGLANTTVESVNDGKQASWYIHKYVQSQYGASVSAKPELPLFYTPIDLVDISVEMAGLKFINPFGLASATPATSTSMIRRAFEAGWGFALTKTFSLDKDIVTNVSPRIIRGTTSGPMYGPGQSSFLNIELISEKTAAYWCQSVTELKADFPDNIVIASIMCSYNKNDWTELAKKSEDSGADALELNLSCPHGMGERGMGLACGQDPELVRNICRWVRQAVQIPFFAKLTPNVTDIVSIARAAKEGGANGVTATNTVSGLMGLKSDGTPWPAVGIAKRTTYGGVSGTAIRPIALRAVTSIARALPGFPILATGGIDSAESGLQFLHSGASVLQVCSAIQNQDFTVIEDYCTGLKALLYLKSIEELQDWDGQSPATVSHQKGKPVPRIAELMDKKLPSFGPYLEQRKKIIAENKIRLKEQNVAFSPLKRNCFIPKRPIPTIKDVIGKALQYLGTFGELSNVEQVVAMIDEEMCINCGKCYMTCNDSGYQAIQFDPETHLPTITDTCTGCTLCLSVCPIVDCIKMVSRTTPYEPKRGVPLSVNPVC

The conditions of data set [3]: humans.

As for 5-FU/leucovorin, in data set [1], the “patients in whom hand-foot syndrome occurred” value was 6% and the “patients with the most severe form (grade 3) of hand-foot syndrome” value is 1%.
As to `O=c1[nH]cc(F)c(=O)[nH]1` [5-FU, 5-fluorouracil], in data set [2], the “share of the injected dose deactivated by DPD” value is recorded as “more than 85%”.
Take `CCCCCOC(=O)Nc1nc(=O)n([C@@H]2O[C@H](C)[C@@H](O)[C@H]2O)cc1F` [capecitabine, N^4-pentyloxycarbonyl-5′-deoxy-5-fuorocytidine]: in data set [1], the “patients in whom hand-foot syndrome occurred” value is 53% and the “patients with the most severe form (grade 3) of hand-foot syndrome” value is 17%. The oral absorption entry in data set [3] was “rapidly and almost completely absorbed”.
